Source: a melting point compilation (Tetko et al.; mined from patent text by program, amines drawn as free bases though some values may be those of a salt)

Row | SMILES | melting point [°C]
1 | CN1C(=O)[C@H](NC(=O)/C=C/c2ccc([N+](=O)[O-])cc2)N=C(c2ccccc2)c2ccccc21 | 165 to 166
2 | COc1cc(-c2ccn(C)n2)cc2oc(=O)c(C)c(C)c12 | 135
3 | CCC(C(=O)c1ccc(OCc2ccccc2)cc1)c1ccc(OCc2ccccc2)cc1 (centres undefined) | 84
4 | CCOC(=O)Cc1ccc(NC(=O)C(COS(C)(=O)=O)NS(=O)(=O)c2ccc(Cl)cc2)cc1 (racemic) | 142 to 143
5 | CC1CC=C(Nc2ccc(Br)cc2)c2ncc(C(=O)O)c(=O)n21 (centres undefined) | 202 to 204
6 | NNC(=S)C12CC3CC(CC(C3)C1)C2 | 204 to 206
7 | Cn1c(=O)c2[nH]c(CCCC(=O)O)nc2n(C)c1=O | 254 to 255
8 | CC(C)Oc1ccccc1-c1ncc(C#N)c(=O)[nH]1 | 182 to 184
9 | CCCCCCNC(=O)n1nc(Oc2ncc(C(F)(F)F)cc2Cl)c(Cl)c1C | 57 to 59
10 | COc1cc(Nc2c(C#N)cnc3c(Br)csc23)c(Cl)cc1Cl | 265 to 266
11 | Cc1ccc(C(O)C2OC(n3cc(C)c(=O)[nH]c3=O)CC2(O)c2ccc(C)cc2)cc1 (centres undefined) | 194 to 196
12 | O=C1CC(c2ccc(-c3ccc(Br)cc3)cc2)Cc2ccccc21 (centres undefined) | 156 to 158
13 | O=C(O)CCc1cn(Cc2ccc(OCCn3ncc4ccccc4c3=O)cc2)nc1-c1ccccc1 | 155 to 156
14 | N=C(NC=Cc1ccc([N+](=O)[O-])cc1)c1cccc([N+](=O)[O-])c1 | 152 to 155
15 | COc1ccc2c(c1)COc1ccc(OCc3ccc4ccc(Cl)cc4n3)cc1C2SCCC(=O)O (centres undefined) | 177 to 179
16 | CCCCC(CC)Cn1c(C)cc(C)c(C(=O)O)c1=O (centres undefined) | 89 to 91
17 | CCOCc1nc2c(N)nc3ccccc3c2n1CCOCCCS(=O)(=O)N(C)C | 61 to 64
18 | COc1cc2c(cc1OC)C(C)(CCC(=O)O)OCC2=O (centres undefined) | 172 to 173
19 | CC(=O)c1cccc(NC(=O)NC2N=C(C(C)C)c3ccccc3N(CC(=O)N3CC4CCC(CC4)C3)C2=O)c1 (centres undefined) | 138 to 140
20 | CC(=O)C1=C(C#N)C(c2cccc(C#N)c2Br)c2c[nH]nc2N1 (centres undefined) | > 230
21 | CSc1ccc(C(=O)Cc2ccccc2)cc1Cl | 101 to 102
22 | CS(=O)(=O)Cc1ccc(C(=NNC(N)=O)c2ccc(Cl)cc2)cc1 | 189 to 191
23 | Oc1c(Sc2ccccc2)sc2ccccc12 | 71 to 73
24 | COc1cc(-c2cc(-c3ccccn3)no2)cc2oc(=O)c(C)c(C)c12 | 193
25 | O=C(Nc1ccccc1)Nn1ccc2ccccc21 | 243

Row | SMILES | melting point [°C]
26 | Cc1ccccc1-n1c(-c2cc(-c3ccc(S(C)(=O)=O)cc3)c(N3CCOCC3)s2)nc2ccccc2c1=O | 255 to 258
27 | CC(=O)Nc1cccc(C(=O)N[C@@H](C)C(=O)N2CCC[C@H]2C(=O)O)c1C(=O)O | 127 to 128
28 | Nc1c(Cl)cc(C(O)CNCCCCCCOCCCc2ccccn2)cc1Cl (centres undefined) | 38 to 41
29 | CCOC(=O)c1cc2cc(OCCCS(C)(=O)=O)cc(N)c2[nH]1 | 187 to 188
30 | Cc1ccc(NC(=O)c2ccc(CN3CCC[C@H](N(C)C)C3)c(C(F)(F)F)c2)cc1Nc1nccc(-c2cncnc2)n1 | 160 to 162
31 | CC(=O)SCC(Cc1ccccc1)C(=O)Nc1cc(C(=O)O)cc(C(C)C)c1 (centres undefined) | 205 to 206
32 | O=C1C=C(c2ccccc2)SCCN1 | 148 to 150
33 | COc1cc(C=CC(=O)Nc2c(-c3ccccc3)c3cc(C)cc(C)c3oc2=O)cc(OC)c1OC(C)=O | 245 to 248
34 | CCN(C)c1nc2cc(-c3ccccc3)nnc2c2ccccc12 | 130 to 133
35 | CCOc1nc(-c2cccc(Cl)c2)c2cc(C(O)(c3ccc(I)cc3)c3cncn3C)ccc2n1 (centres undefined) | 135
36 | CC(=O)NC(C)(C)c1ccc(C(C)O)cc1 (centres undefined) | 146 to 149
37 | N=c1ccccn1Cc1ccccc1 | 52 to 54
38 | COc1cc(C(=O)N2Cc3ccc(C(=O)NCCC(c4ccccc4)c4ccccc4)n3Cc3ccccc32)ccc1-c1ccccc1C | 214
39 | O=S1(=O)N=C(NCC2CC2)Nc2ccc(C(F)(F)F)cc21 | 266 to 268
40 | Nc1nc2ccccc2c2c1nc1n2OCC1 | > 300
41 | COC(=O)c1nc(-c2ccccc2)ccc1O | 100 to 101
42 | CCOC(=S)Cc1nc2ccccc2s1 | 45 to 48
43 | Cc1nc2n(c(=O)c1C(N)=O)C(C)CCC2=NNc1ccccc1 (centres undefined) | 235 to 237
44 | CC(C)(C)c1nc(C(N)=S)nc(C(C)(C)C)c1O | 169 to 171
45 | O=[N+]([O-])c1ccc(Cc2nc(-c3ccncc3)cs2)cc1 | 140 to 142
46 | CCOC(=O)c1csc(C#Cc2ccc(OC)c(C34CC5CC(CC(C5)C3)C4)c2)c1 | 88 to 90
47 | CN(CC(F)(F)F)C(=O)COc1nnc(-c2ccccc2)s1 | 123
48 | CCn1c2c(c3cc(OC)c(OC)cc3c1=O)C(=O)c1cc3c(cc1-2)OCO3 | 291 to 293
49 | CC(=O)OC1CSC(Oc2cccc(-c3cnccn3)c2)C(OC(C)=O)C1OC(C)=O (centres undefined) | 92
50 | CCCCCCCCCCCCCCCCCCCc1cc(N)cc(CCCCCCCCCCCCCCCCCCC)c1 | 51 to 53

Row | SMILES | melting point [°C]
51 | COC(=O)C(Oc1ccc([N+](=O)[O-])cc1)C(C)=O (centres undefined) | 87.5 to 88
52 | O=C(CC1=C(n2nc(-c3c(-c4ccccc4)nn4ccccc34)ccc2=O)CCCC1)N1CCCCC1 | 184 to 185
53 | CSc1ccc(-c2cc(C(F)(F)F)nn2-c2ccc(C#N)cc2)cc1 | 145 to 147
54 | COc1ccc(COCc2nc(C(C)C)c(Sc3cc(Cl)cc(Cl)c3)n2CC(C)=O)cc1 | 87 to 90
55 | CCCOc1nccc2c1C(c1ccccc1C(F)(F)F)C(C(=O)OCC)=C(C)N2 (centres undefined) | 115 to 117
56 | Cc1cc(-c2cc(O)c(SCc3ccccc3)c(=O)o2)cc(C)n1 | 88 to 90
57 | O=CNc1ccc(C=O)cc1[N+](=O)[O-] | 183 to 191
58 | Cc1ccccc1C1SC2(CCN(CCCC(=O)c3ccc(F)cc3)CC2)c2ccccc21 (centres undefined) | 143 to 145
59 | Cc1ccc2[nH]c(=O)c(C(=O)NC3CCCCC3)c(O)c2c1 | 269
60 | Cc1cc(C)c2c(c1)OCC2c1ccc(C(C)C)cc1 (centres undefined) | 46 to 47
61 | CCC1c2cccn2-c2ccc(F)cc2N1C(=O)c1cccc(OC)c1 (centres undefined) | 70 to 74
62 | O=C1CC(c2ccc(Cl)c(Cl)c2)Cc2[nH]c3ccc(Cl)cc3c(=O)c21 (centres undefined) | > 325
63 | NC1CC2CCCC(C1)N2Cc1ccccc1 (centres undefined) | 134
64 | Cc1cnc2c(NC(=O)c3c(Cl)cccc3Cl)cccc2c1-n1ccc(=O)cc1 | 280 to 282
65 | Cc1nc(NC(=O)C2=C(O)c3ccc4ccccc4c3S(=O)(=O)N2)sc1C | 253
66 | O=C(NCc1ccc2c(Br)c(OC(Cc3ccccc3)C(=O)O)ccc2c1)c1ccc(Oc2cc(Cl)cc(Cl)c2)o1 (centres undefined) | 86 to 100
67 | COc1ccc2c(C(=O)N[C@H](Cc3ccc(C(F)(F)F)cc3)[C@@H](O)c3ccc(F)cc3)cccc2c1 (racemic) | 193 to 194
68 | CCC[C@H](NC(=O)Cc1cc(C)sc1C)C(=O)Nc1ncc(-c2ccccc2COCC)s1 | 84
69 | CCCC[C@H](F)C(=O)N[C@@H](C)c1ccc([N+](=O)[O-])cc1 | 84.5 to 86.5
70 | O=C1CC(c2ccc3oc4c(c3c2)CCCC4)CC(=O)O1 | 164 to 166
71 | CCOC(=O)c1cc2cccc(N(C)S(=O)(=O)c3cccs3)c2[nH]1 | 164 to 165
72 | CN1Cc2c(C=NO)ncn2-c2ccc(F)cc2C1=O | 247 to 250
73 | CC(=O)N1CCC(c2ccccc2)c2cccc(CCN3CCN(c4nsc5ccccc45)CC3)c21 (centres undefined) | 97
74 | CC(=O)COc1ccc(-c2ccc(=O)n(Cc3ccc(Cl)cc3F)c2)cc1 | 127
75 | O=[N+]([O-])CS(=O)(=O)c1cccc2c1sc1ccccc12 | 145 to 146

Row | SMILES | melting point [°C]
76 | c1ccc2c(CCOc3cncc(N4CCNCC4)n3)c[nH]c2c1 | 133 to 135
77 | CCOC(=O)c1c(C(F)(F)F)nc2ccc(OC)cc2c1O | 184
78 | CCOC1(c2nc3ccccc3s2)C=CC(=O)C=C1 | 59
79 | CCOCCCOc1ccc(-c2ccc3c(c2)C=C(C(=O)OC)CCN3C=O)cc1 | 112 to 113
80 | CC(=O)OC1NC(=O)C2=C1c1ccc(Cl)cc1C(c1ccccc1Cl)=NC2 (centres undefined) | 219 to 221
81 | CCCCCCCCCCC[C@@H](C[C@@H]1OC(=O)[C@H]1CCCCCC)OC(=O)CC(=O)NC(C)C | 59
82 | CNC(=O)COC(=O)N1CCN(CCCc2cccc(-c3cccc(Cl)c3)c2)CC1 | 82 to 85
83 | CS(=O)(=O)c1ccc(-n2nc(C(F)(F)F)cc2-c2nc3ccc(F)cc3o2)cc1 | 216 to 218
84 | Cc1cccc(CNc2ncccc2[N+](=O)[O-])n1 | 132
85 | CC(C)c1c(-c2ccncc2)[nH]c2ccc(C3=NNC(=O)CC3)cc12 | > 300
86 | S=c1[nH]c(-c2ccccc2)c(-c2ccccc2)n1Nc1cccc(Cl)c1 | 178 to 180
87 | C=CCSC(C#N)C1=NCCc2cc(OC)c(OC)cc21 (centres undefined) | 146 to 147
88 | Nc1nc(Cl)c2ncn(OCCOCP(=O)(O)O)c2n1 | 190 to 195
89 | CCC1(CC)OC(=O)Nc2ccc(-c3cccc(Cl)c3)cc21 | 150 to 151
90 | CO[C@@H](Cc1ccc(OCCc2nc(-c3ccc(C(F)(F)F)cc3)oc2C)c2ccccc12)C(=O)O | 167 to 168
91 | O=CN1CCc2cc(OCC3CO3)ccc2C1 (centres undefined) | 78 to 79
92 | CCCCCCNC(=O)NCCCCl | 48 to 50
93 | CCC(CC)Nc1cc(C(=O)O)ccc1N1C(=O)CCC1(CO)CCO (centres undefined) | 188 to 190
94 | Cc1nc(N)c2nc(C)n(CCCN)c2c1C | 192
95 | CC(C)CN1CC(O)C(O)C(O)C1CO (centres undefined) | 192 to 194
96 | O=C(C1CCc2nc[nH]c2C1)N1CCc2ccccc21 (centres undefined) | 175 to 178
97 | Cc1c(Cl)cccc1S(=O)(=O)Nc1ccc2oncc2c1 | 112
98 | CNS(=O)(=O)NC(C)C | 50 to 52
99 | CCOC(=O)c1cccc2c(-c3ccc(C)cc3)nccc12 | 112
